Reference: patent US20140113898A1, “BISARYLSULFONE AND DIALKYLARYLSULFONE COMPOUNDS AS CALCIUM CHANNEL BLOCKERS” (Zalicus Pharmaceuticals Ltd., priority 2010, published 2014)
Where two headings read alike, the source gives them in different places.

How the values were obtained:
Format in all cases: cell-based
CaV3.2 = molecular target: T1, CaV3.2 (Homo sapiens, UniProt O95180); test: High-throughput CaV3.2/Kir2.3 T-type FLIPR fluorescent assay; conditions: Fluo-4 FLIPR, closed or inactivated state not stated
T1 construct: expressed in transfected cells; host or cells: unnamed doxycycline-inducible cell line
Procedure, shortened: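 Doxycycline-induced cells loaded with Fluo-4, preincubated 20 min at 29°C with compound in 2 mM KCl (closed-state) or 7.6 mM KCl (inactivated-state) buffer, pH 7.4. Calcium entry triggered by 12 mM or 14.5 mM KCl respectively; fluorescence read 3 min by FLIPR, IC50 from logistic fit.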

CaV3.1 = molecular target: T2, CaV3.1 (Homo sapiens, UniProt O43497); test: High-throughput CaV3.1 T-type FLIPR fluorescent assay; conditions: Fluo-4 FLIPR
T2 construct: expressed in transfected cells; host or cells: unnamed doxycycline-inducible cell line
Description: Cells were plated in 384-well, clear-bottom, black-walled, poly-D-lysine coated plates (Becton Dickinson, Franklin Lake, N.J.) 2 days prior to use in the FLIPR assay. 100 μL of cells (2.0×10^6 cell/mL) containing doxycyline (Sigma-Aldrich, 1.5 μg/mL; to induce channel expression) were added to each well using a Multidrop (Thermo Scientific, Waltham, Mass.) and were maintained in 5% CO2 incubator at 37° C. On the morning of the assay, cells were transferred to a 5% CO2 incubator at 29° C.
Cells were washed with a wash buffer containing (in mM): 118 NaCl, 18.4 HEPES, 11.7 D-glucose, 0.05 CaCl2, 0.5 MgSO4, 1 KCl, and 1.2 KH2PO4, with the pH adjusted to 7.2 with NaOH. 4.4 μM of the fluorescent indicator dye, Fluo-4 (Invitrogen), prepared in pluronic acid
(Sigma-Aldrich), was loaded into the wells and incubated for 45 minutes at 29° C. in 5% CO2. Cells were then rinsed with the following low Ca^2+ buffer (in mM): 0.34 Na2HPO4, 4.2 NaHCO3, 0.44 KH2PO4, 0.41 MgSO4, 0.49 MgCl2-6H2O, 20 HEPES, 5.5 D-Glucose, 137 NaCl, 5.3 KCl, and 0.001 CaCl2, with 0.1% BSA and the pH adjusted to 7.2 with NaOH. Concentration-dependent response curves were generated from 5 mM stock solutions prepared in DMSO (Sigma-Aldrich) and diluted in the buffer containing low Ca^2+ and incubated for 20 minutes at 29° C. in 5% CO2. Calcium entry was evoked with an addition of (in mM): 0.34 Na2HPO4, 4.2 NaHCO3, 0.44 KH2PO4, 0.41 MgSO4, 0.49 MgCl2-6H2O, 20 HEPES, 5.5 D-Glucose, 137 NaCl, 5.3 KCl, and 6 CaCl2, with 0.1% BSA and the pH adjusted to 7.2 with NaOH. A change in the Fluo-4 fluorescence signal was assessed using FLIPR^TETRA™ instrument (Molecular Devices, Sunnyvale, Calif.) for 3 minutes following the elevation of extracellular KCl using an illumination wavelength of 470-495 nm with emissions recorded at 515-575 nm.
Concentration-dependent response curves were obtained by comparing the fluorescence signal in the presence of compound and fitted with a logistic function (1) to obtain the concentration that inhibited 50% (IC50) of the RLU signal using OriginPro v.7.5 software (OriginLab, Northampton, Mass.).
To assess the quality of the FLIPR assays the Z-factor (2) was used to quantify the suitability of the assay conditions using the following equation: […]
Data are expressed as mean and standard deviation (SD).

CaV2.2 = molecular target: T3, CaV2.2 (Homo sapiens, UniProt Q00975); test: High-throughput CaV2.2/Kir2.3 FLIPR fluorescent assay; conditions: Fluo-4 FLIPR, closed or inactivated state not stated, read-out: FLIPR data CaV2.2
T3 construct: expressed in transfected cells; host or cells: unnamed doxycycline-inducible cell line
Procedure, shortened: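 Doxycycline-induced cells moved to 29 °C on assay day and were loaded with 4.4 μM Fluo-4. They were held in 2 mM KCl (closed state) or 12.5 mM KCl (inactivated state) buffer, pH 7.4, then depolarized with 130 mM KCl. Fluorescence was read 3 min on FLIPR, and IC50 was obtained from logistic fits.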

T2 sequence (O43497 whole entry): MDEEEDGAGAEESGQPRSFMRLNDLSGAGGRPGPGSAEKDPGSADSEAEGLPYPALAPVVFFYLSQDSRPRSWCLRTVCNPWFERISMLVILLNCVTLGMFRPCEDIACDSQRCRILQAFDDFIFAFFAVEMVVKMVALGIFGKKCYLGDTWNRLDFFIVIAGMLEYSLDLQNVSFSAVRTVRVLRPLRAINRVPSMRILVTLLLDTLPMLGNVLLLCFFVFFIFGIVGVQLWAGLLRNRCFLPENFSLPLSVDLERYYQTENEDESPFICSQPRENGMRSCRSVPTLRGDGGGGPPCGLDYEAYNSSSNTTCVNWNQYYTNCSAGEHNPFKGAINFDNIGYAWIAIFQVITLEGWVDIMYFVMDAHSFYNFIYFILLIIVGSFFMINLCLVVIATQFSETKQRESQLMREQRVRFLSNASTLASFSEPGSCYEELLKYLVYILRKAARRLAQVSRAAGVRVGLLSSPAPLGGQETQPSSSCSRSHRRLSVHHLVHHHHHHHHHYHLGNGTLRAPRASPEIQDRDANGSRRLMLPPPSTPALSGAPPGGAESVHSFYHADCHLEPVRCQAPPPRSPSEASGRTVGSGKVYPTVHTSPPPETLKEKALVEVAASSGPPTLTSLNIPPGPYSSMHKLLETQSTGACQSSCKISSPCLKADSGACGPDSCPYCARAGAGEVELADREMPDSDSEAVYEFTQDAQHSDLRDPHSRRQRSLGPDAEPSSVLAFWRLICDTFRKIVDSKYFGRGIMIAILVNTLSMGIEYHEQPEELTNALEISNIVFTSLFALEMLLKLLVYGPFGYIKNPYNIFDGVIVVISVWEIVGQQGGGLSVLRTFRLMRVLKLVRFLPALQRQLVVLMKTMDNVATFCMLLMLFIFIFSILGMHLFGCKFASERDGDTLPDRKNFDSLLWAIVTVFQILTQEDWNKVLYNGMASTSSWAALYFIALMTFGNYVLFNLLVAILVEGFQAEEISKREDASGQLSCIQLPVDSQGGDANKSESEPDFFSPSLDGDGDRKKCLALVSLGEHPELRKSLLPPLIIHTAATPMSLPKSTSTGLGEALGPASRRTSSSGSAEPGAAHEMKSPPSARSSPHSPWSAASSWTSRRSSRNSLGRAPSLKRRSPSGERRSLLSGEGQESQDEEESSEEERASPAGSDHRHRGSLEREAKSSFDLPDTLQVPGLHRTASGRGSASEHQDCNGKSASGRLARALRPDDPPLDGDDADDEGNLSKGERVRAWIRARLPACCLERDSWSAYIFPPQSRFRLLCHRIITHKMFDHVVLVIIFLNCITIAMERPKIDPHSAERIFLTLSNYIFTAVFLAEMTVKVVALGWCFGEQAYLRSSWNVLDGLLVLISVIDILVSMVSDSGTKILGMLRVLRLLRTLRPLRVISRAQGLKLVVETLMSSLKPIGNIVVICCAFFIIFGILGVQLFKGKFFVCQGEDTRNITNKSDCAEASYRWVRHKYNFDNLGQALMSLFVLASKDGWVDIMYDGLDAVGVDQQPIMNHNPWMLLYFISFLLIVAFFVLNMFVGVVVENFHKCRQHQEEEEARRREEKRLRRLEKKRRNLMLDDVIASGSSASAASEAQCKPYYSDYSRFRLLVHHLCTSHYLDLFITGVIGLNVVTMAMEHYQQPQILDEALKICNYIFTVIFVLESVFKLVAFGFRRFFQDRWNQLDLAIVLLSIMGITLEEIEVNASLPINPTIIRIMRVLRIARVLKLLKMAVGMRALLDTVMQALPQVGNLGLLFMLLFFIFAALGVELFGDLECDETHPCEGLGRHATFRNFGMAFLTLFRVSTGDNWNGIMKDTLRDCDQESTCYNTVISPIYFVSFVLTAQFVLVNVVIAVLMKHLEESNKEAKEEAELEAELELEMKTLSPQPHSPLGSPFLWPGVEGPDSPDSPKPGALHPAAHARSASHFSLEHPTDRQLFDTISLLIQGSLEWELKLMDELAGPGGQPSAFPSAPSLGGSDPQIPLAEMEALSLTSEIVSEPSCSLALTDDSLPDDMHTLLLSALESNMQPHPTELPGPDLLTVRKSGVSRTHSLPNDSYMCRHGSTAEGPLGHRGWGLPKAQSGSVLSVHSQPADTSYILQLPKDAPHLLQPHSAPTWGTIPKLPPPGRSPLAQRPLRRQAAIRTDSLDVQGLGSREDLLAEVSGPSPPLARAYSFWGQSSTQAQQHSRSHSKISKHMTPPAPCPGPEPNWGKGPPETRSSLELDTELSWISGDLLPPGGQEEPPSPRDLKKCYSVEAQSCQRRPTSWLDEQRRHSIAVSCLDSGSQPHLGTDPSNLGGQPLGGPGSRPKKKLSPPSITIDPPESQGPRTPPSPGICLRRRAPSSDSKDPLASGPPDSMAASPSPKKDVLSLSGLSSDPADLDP
T1 sequence (O95180 whole entry): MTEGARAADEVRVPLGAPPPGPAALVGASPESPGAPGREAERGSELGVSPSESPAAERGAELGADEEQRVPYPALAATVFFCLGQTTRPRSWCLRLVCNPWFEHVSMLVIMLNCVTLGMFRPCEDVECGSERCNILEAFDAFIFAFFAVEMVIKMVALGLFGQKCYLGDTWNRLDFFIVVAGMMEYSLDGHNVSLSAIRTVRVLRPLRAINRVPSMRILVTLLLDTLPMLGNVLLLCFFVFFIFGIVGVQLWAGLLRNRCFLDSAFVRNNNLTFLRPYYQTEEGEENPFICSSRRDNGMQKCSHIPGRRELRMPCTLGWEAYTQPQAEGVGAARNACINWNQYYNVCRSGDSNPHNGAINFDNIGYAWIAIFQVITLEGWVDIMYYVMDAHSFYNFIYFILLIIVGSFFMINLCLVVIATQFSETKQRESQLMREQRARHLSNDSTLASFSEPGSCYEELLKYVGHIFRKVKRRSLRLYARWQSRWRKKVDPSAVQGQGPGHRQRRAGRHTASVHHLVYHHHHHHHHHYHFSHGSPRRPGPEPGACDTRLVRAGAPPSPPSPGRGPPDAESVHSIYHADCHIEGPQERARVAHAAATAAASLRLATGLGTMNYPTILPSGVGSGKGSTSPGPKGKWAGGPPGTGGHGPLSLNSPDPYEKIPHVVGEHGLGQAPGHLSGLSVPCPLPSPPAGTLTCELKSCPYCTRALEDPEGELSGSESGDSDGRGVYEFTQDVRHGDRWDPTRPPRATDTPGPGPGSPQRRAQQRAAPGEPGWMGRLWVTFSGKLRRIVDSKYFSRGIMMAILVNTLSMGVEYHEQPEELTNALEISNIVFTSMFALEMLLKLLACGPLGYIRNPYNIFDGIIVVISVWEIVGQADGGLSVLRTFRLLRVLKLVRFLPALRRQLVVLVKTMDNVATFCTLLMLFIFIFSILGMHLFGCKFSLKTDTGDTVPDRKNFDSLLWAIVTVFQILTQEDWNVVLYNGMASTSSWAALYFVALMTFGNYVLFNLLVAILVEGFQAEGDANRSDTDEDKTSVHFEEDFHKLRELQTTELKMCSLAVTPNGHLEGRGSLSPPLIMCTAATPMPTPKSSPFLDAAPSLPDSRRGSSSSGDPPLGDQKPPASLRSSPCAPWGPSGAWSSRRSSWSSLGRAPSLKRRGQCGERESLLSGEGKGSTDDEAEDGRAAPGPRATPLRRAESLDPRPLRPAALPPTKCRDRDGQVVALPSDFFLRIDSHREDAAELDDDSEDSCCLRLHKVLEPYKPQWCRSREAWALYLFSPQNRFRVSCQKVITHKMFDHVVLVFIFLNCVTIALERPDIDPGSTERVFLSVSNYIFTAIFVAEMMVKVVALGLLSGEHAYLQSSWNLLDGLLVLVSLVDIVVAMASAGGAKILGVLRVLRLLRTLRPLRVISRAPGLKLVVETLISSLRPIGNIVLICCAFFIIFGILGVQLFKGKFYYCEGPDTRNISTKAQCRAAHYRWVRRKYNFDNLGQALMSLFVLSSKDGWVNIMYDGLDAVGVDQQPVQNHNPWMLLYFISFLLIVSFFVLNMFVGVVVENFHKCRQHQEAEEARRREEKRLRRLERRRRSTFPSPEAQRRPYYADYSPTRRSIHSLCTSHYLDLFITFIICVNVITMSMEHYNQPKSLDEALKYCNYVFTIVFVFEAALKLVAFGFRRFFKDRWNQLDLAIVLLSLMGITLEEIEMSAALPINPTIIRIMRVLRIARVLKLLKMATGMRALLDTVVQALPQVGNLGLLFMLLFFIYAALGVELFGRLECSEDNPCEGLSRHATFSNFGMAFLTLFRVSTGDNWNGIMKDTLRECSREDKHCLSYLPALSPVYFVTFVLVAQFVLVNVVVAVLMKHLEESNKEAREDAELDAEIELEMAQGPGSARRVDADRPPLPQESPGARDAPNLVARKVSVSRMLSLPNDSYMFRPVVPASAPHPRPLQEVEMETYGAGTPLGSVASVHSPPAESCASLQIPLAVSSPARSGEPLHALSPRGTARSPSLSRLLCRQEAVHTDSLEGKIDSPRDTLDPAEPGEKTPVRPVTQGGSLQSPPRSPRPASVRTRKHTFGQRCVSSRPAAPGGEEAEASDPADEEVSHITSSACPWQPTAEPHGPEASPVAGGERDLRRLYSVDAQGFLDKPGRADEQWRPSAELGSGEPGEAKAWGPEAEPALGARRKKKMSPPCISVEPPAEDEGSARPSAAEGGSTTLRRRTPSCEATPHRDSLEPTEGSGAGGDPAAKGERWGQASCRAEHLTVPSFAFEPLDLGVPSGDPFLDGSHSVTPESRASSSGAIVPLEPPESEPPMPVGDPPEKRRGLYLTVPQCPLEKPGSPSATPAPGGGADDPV

Structure (SMILES): O=C(NCc1ccc(S(=O)(=O)c2cccc(C(F)(F)F)c2)cn1)c1ccc(Cl)c(F)c1 [Compound 88, 4-chloro-3-fluoro-N-((5-((3-(trifluoromethyl)phenyl)sulfonyl)pyridin-2-yl)methyl)benzamide]
- IC50 (CaV3.2; Table 4): 810 nM
- IC50 (CaV3.1; Table 4): 900 nM
- IC50 (CaV2.2; Table 4): 810 nM

Structure (SMILES): CC(C)(C(=O)N1CCC(c2cccc(Cl)c2)CC1)S(=O)(=O)c1cccc(C(F)(F)F)c1 [Compound 133, 1-(4-(3-chlorophenyl)piperidin-1-yl)-2-methyl-2-((3-(trifluoromethyl)phenyl)sulfonyl)propan-1-one]
- IC50 (CaV3.2; Table 5): 4960 nM
- IC50 (CaV3.1; Table 5): 2160 nM
- IC50 (CaV2.2; Table 5): 1160 nM

Structure (SMILES): O=C(NCc1ccc(S(=O)(=O)c2cccc(C(F)(F)F)c2)cc1)c1cnc(C(F)(F)F)nc1 [Compound 8, 2-(trifluoromethyl)-N-(4-((3-(trifluoromethyl)phenyl)sulfonyl)benzyl)pyrimidine-5-carboxamide]
- IC50 (CaV3.2; Table 4): 920 nM
- IC50 (CaV3.1; Table 4): 2140 nM
- IC50 (CaV2.2; Table 4): 510 nM

Structure (SMILES): O=C(NCc1cccc(S(=O)(=O)c2cccc(C(F)(F)F)c2)c1)c1cn2cc(C(F)(F)F)ccc2n1 [Compound 32, 6-(trifluoromethyl)-N-(3-((3-(trifluoromethyl)phenyl)sulfonyl)benzyl)imidazo[1,2-a]pyridine-2-carboxamide]
- IC50 (CaV3.2; Table 4): 370 nM
- IC50 (CaV3.1; Table 4): 1400 nM
- IC50 (CaV2.2; Table 4): 160 nM

Structure (SMILES): O=C(NCc1ccc(S(=O)(=O)c2cccc(C(F)(F)F)c2)cc1)c1ccc(C(F)(F)F)nc1 [Compound 3, 6-(trifluoromethy)-N-(4-((3-(trifluoromethyl)phenyl)sulfonyl)benzyl)nicotinamide]
- IC50 (CaV3.2; Table 4): 650 nM
- IC50 (CaV3.1; Table 4): 1340 nM
- IC50 (CaV2.2; Table 4): 510 nM

Structure (SMILES): O=C(NCc1ccccc1S(=O)(=O)c1cccc(C(F)(F)F)c1)c1ccc(Cl)c(F)c1 [Compound 36, 4-chloro-3-fluoro-N-(2-((3-(trifluoromethyl)phenyl)sulfonyl)benzyl)benzamide]
- IC50 (CaV3.2; Table 4): 770 nM
- IC50 (CaV3.1; Table 4): 410 nM
- IC50 (CaV2.2; Table 4): 830 nM

Structure (SMILES): CS(=O)(=O)c1cc(C(=O)NCc2ccc(S(=O)(=O)c3cccc(C(F)(F)F)c3)cc2)cc(C(F)(F)F)n1 [Compound 10, 2-(methylsulfonyl)-6-(trifluoromethyl)-N-(4-((3-(trifluoromethyl)phenyl)sulfonyl)benzyl)isonicotinamide]
- IC50 (CaV3.2; Table 4): 980 nM
- IC50 (CaV3.1; Table 4): 1970 nM
- IC50 (CaV2.2; Table 4): 690 nM

Structure (SMILES): CS(=O)(=O)c1nc(C(F)(F)F)ccc1C(=O)NCc1ccc(S(=O)(=O)c2cccc(C(F)(F)F)c2)cc1 [Compound 6, 2-(methylsulfonyl)-6-(trifluoromethyl)-N-(4-((3-(trifluoromethyl)phenyl)sulfonyl)benzyl)nicotinamide]
- IC50 (CaV3.2; Table 4): 1510 nM
- IC50 (CaV3.1; Table 4): 2340 nM
- IC50 (CaV2.2; Table 4): 710 nM

Structure (SMILES): O=C(NCc1ccccc1S(=O)(=O)c1cccc(C(F)(F)F)c1)c1ccc(F)c(Cl)c1 [Compound 52, 3-chloro-4-fluoro-N-(2-((3-(trifluoromethyl)phenyl)sulfonyl)benzyl)benzamide]
- IC50 (CaV3.2; Table 4): 1300 nM
- IC50 (CaV3.1; Table 4): 680 nM
- IC50 (CaV2.2; Table 4): 740 nM

Structure (SMILES): CC(C)(C(=O)NCc1cccc(C(F)(F)F)c1)S(=O)(=O)c1cccc(C(F)(F)F)c1 [Compound 124, 2-methyl-N-(3-(trifluoromethyl)benzyl)-2-((3-(trifluoromethyl)phenyl)sulfonyl)propanamide]
- IC50 (CaV3.2; Table 5): 5620 nM
- IC50 (CaV3.1; Table 5): 4250 nM
- IC50 (CaV2.2; Table 5): 750 nM

Structure (SMILES): O=C(NCc1cccc(S(=O)(=O)c2cccc(C(F)(F)F)c2)c1)c1ccnn1CC(F)(F)F [Compound 29, 1-(2,2,2-trifluoroethyl)-N-(3-((3-(trifluoromethyl)phenyl)sulfonyl)benzyl)-1H-pyrazole-5-carboxamide]
- IC50 (CaV3.2; Table 4): 600 nM
- IC50 (CaV3.1; Table 4): 1850 nM
- IC50 (CaV2.2; Table 4): 340 nM

Structure (SMILES): CS(=O)(=O)c1cc(C(F)(F)F)ccc1C(=O)NCc1ccc(S(=O)(=O)c2cccc(C(F)(F)F)c2)cn1 [Compound 99, 2-(methylsulfonyl)-4-(trifluoromethyl)-N-((5-((3-(trifluoromethyl)phenyl)sulfonyl)pyridin-2-yl)methyl)benzamide]
- IC50 (CaV3.2; Table 4): 1320 nM
- IC50 (CaV3.1; Table 4): 1270 nM
- IC50 (CaV2.2; Table 4): 910 nM

Structure (SMILES): O=C(NCc1cccc(S(=O)(=O)c2cccc(C(F)(F)F)c2)c1)c1ccnc(C(F)(F)F)c1 [Compound 31, 2-(trifluoromethyl)-N-(3-((3-(trifluoromethyl)phenyl)sulfonyl)benzyl)isonicotinamide]
- IC50 (CaV3.2; Table 4): 730 nM
- IC50 (CaV3.1; Table 4): 1750 nM
- IC50 (CaV2.2; Table 4): 390 nM

Structure (SMILES): N[C@@H]1CCCC[C@H]1C(=O)NCc1ccc(S(=O)(=O)c2cccc(C(F)(F)F)c2)cc1 [Compound 81, (1R,2R)-2-amino-N-(4-((3-(trifluoromethyl)phenyl)sulfonyl)benzyl)cyclohexanecarboxamide]
- IC50 (CaV3.2; Table 4): 4560 nM
- IC50 (CaV3.1; Table 4): 8240 nM
- IC50 (CaV2.2; Table 4): 680 nM

Structure (SMILES): CC(C)(C(=O)Nc1ccc(Oc2ccc(C(F)(F)F)cn2)nc1)S(=O)(=O)c1cccc(OC(F)(F)F)c1 [Compound 123, 2-methyl-2-((3-(trifluoromethoxy)phenyl)sulfonyl)-N-(6-((5-(trifluoromethyl)pyridin-2-yl)oxy)pyridin-3-yl)propanamide]
- IC50 (CaV3.2; Table 5): 3010 nM
- IC50 (CaV3.1; Table 5): 4990 nM
- IC50 (CaV2.2; Table 5): 920 nM

Structure (SMILES): O=C(NCc1cccc(S(=O)(=O)c2cccc(C(F)(F)F)c2)c1)c1ccnc(C(F)(F)F)n1 [Compound 27, 2-(trifluoromethyl)-N-(3-((3-(trifluoromethyl)phenyl)sulfonyl)benzyl)pyrimidine-4-carboxamide]
- IC50 (CaV3.2; Table 4): 2450 nM
- IC50 (CaV3.1; Table 4): 3360 nM
- IC50 (CaV2.2; Table 4): 310 nM

Structure (SMILES): CS(=O)(=O)c1cc(C(F)(F)F)cnc1C(=O)NCc1cccc(S(=O)(=O)c2cccc(C(F)(F)F)c2)c1 [Compound 24, 3-(methylsulfonyl)-5-(trifluoromethyl)-N-(3-((3-(trifluoromethyl)phenyl)sulfonyl)benzyl)picolinamide]
- IC50 (CaV3.2; Table 4): 550 nM
- IC50 (CaV3.1; Table 4): 3240 nM
- IC50 (CaV2.2; Table 4): 410 nM

Structure (SMILES): CC(C)(CNC(=O)C(C)(C)S(=O)(=O)c1cccc(C(F)(F)F)c1)S(=O)(=O)c1cccc(C(F)(F)F)c1 [Compound 149, 2-methyl-N-(2-methyl-2-((3-(trifluoromethyl)phenyl)sulfonyl)propyl)-2-((3-(trifluoromethyl)phenyl)sulfonyl)propanamide]
- IC50 (CaV3.2; Table 5): 2860 nM
- IC50 (CaV3.1; Table 5): 3850 nM
- IC50 (CaV2.2; Table 5): 460 nM

Structure (SMILES): CS(=O)(=O)c1cc(C(F)(F)F)ccc1C(=O)NCc1ccccc1S(=O)(=O)c1cccc(C(F)(F)F)c1 [Compound 47, 2-(methylsulfonyl)-4-(trifluoromethyl)-N-(2-((3-(trifluoromethyl)phenyl)sulfonyl)benzyl)benzamide]
- IC50 (CaV3.2; Table 4): 2130 nM
- IC50 (CaV3.1; Table 4): 270 nM
- IC50 (CaV2.2; Table 4): 590 nM

Structure (SMILES): CC(C)(C(=O)N1CCC(c2ccc(C(F)(F)F)cc2)CC1)S(=O)(=O)c1cccc(C(F)(F)F)c1 [Compound 136, 2-methyl-1-(4-(4-(trifluoromethyl)phenyl)piperidin-1-yl)-2-((3-(trifluoromethyl)phenyl)sulfonyl)propan-1-one]
- IC50 (CaV3.2; Table 5): 2440 nM
- IC50 (CaV3.1; Table 5): 4400 nM
- IC50 (CaV2.2; Table 5): 390 nM

Structure (SMILES): O=C(NCc1ccc(S(=O)(=O)c2cccc(C(F)(F)F)c2)cc1)c1ccnc(C(F)(F)F)n1 [Compound 9, 2-(trifluoromethyl)-N-(4-((3-(trifluoromethyl)phenyl)sulfonyl)benzyl)pyrimidine-4-carboxamide]
- IC50 (CaV3.2; Table 4): 1690 nM
- IC50 (CaV3.1; Table 4): 2850 nM
- IC50 (CaV2.2; Table 4): 490 nM

Structure (SMILES): CC(C)(C(=O)NCCc1c[nH]c2ccc(F)cc12)S(=O)(=O)c1cccc(C(F)(F)F)c1 [Compound 131, N-(2-(5-fluoro-1H-indol-3-yl)ethyl)-2-methyl-2-((3-(trifluoromethyl)phenyl)sulfonyl)propanamide]
- IC50 (CaV3.2; Table 5): 5210 nM
- IC50 (CaV3.1; Table 5): 6660 nM
- IC50 (CaV2.2; Table 5): 790 nM
